From ChEMBL document CHEMBL1147043, “Comparative metabolism of radiolabeled muraglitazar in animals and humans by quantitative and qualitative metabolite profiling” (Drug Metab Dispos, 2007)

Columns and labels:
[1] = Drug concentration in cynomolgus monkey urine assessed as recovery of radioactive dose at 2 mg/kg, po after 168 hrs; assay type: ADME, organism-based, Macaca fascicularis; set-up: dose 2 mg/kg, route oral; conditions: in vivo
[2] = Drug concentration in Beagle dog feces assessed as recovery of radioactive dose at 1.9 mg/kg, po after 168 hrs; assay type: ADME, organism-based, Canis lupus familiaris; set-up: dose 1.9 mg/kg, route oral; conditions: in vivo
[3] = Metabolic stability in cynomolgus monkey hepatocytes assessed as 12,17-dihydroxy muraglitazar level by LC/MS analysis relative to control; assay type: ADME, cell-based, Macaca fascicularis, Hepatocyte
Plasma [4] = assay: Biodistribution in orally dosed human plasma assessed as 12-hydroxy-O-demethyl muraglitazar level after 4 hrs by LC/MS analysis; assay type: ADME, organism-based; conditions: in vivo, po
[5] = Drug concentration in bile duct-cannulated CD1 mouse feces assessed as recovery of radioactive dose at 1 mg/kg, po after 24 hrs; assay type: ADME, organism-based; set-up: dose 1 mg/kg, route oral; conditions: in vivo
[6] = Metabolic stability in cynomolgus monkey hepatocytes assessed as 12-hydroxy-O-demethyl muraglitazar level by LC/MS analysis relative to control; assay type: ADME, cell-based, Macaca fascicularis, Hepatocyte
Rattus norvegicus [7] = assay: Biodistribution in orally dosed Sprague-Dawley rat urine assessed as muraglitazar glucuronide level by LC/MS analysis; assay type: ADME, organism-based; conditions: in vivo, po
Plasma [8] = assay: Biodistribution in orally dosed cynomolgus monkey plasma assessed as 12,17-dihydroxy muraglitazar level after 1 hr by LC/MS analysis; assay type: ADME, organism-based, Macaca fascicularis; conditions: in vivo, po
[9] = Biodistribution in orally dosed cynomolgus monkey urine assessed as 9-hydroxy muraglitazar level by LC/MS analysis; assay type: ADME, organism-based, Macaca fascicularis; conditions: in vivo, po
[10] = Drug concentration in human feces assessed as recovery of radioactive dose at 20 mg, po after 240 hrs; assay type: ADME, organism-based; conditions: in vivo
Plasma [11] = assay: Biodistribution in orally dosed cynomolgus monkey plasma assessed as 17-dihydroxy muraglitazar level after 1 hr by LC/MS analysis; assay type: ADME, organism-based, Macaca fascicularis; conditions: in vivo, po
Hepatocyte [12] = assay: Metabolic stability in human hepatocytes assessed as 12-hydroxy-O-demethyl muraglitazar level by LC/MS analysis relative to control; assay type: ADME, cell-based
[13] = Metabolic stability in cynomolgus monkey hepatocytes assessed as 17-hydroxy muraglitazar level by LC/MS analysis relative to control; assay type: ADME, cell-based, Macaca fascicularis, Hepatocyte
[14] = Biodistribution in orally dosed cynomolgus monkey feces assessed as O-dealkyl-O-demethyl muraglitazar level by LC/MS analysis; assay type: ADME, organism-based, Macaca fascicularis; conditions: in vivo, po
[15] = Drug concentration in Sprague-Dawley rat urine assessed as recovery of radioactive dose at 11 mg/kg, po after 168 hrs; assay type: ADME, organism-based; set-up: dose 11 mg/kg, route oral; conditions: in vivo
Plasma [16] = assay: Biodistribution in orally dosed Sprague-Dawley rat plasma assessed as O-demethyl muraglitazar level after 12 hrs by LC/MS analysis; assay type: ADME, organism-based; conditions: in vivo, po
Plasma [17] = assay: Biodistribution in orally dosed cynomolgus monkey plasma assessed as 12-hydroxy-O-demethyl muraglitazar level after 4 hrs by LC/MS analysis; assay type: ADME, organism-based, Macaca fascicularis; conditions: in vivo, po
[18] = Drug concentration in bile duct-cannulated cynomolgus monkey bile assessed as recovery of radioactive dose at 5 mg/kg, po after 48 hrs; assay type: ADME, organism-based, Macaca fascicularis; set-up: dose 5 mg/kg, route oral; conditions: in vivo
[19] = Drug concentration in Sprague-Dawley rat urine at 11 mg/kg, po after 12 hrs; assay type: ADME, organism-based; set-up: dose 11 mg/kg, route oral; conditions: read-out: Drug uptake
Plasma [20] = assay: Biodistribution in orally dosed cynomolgus monkey plasma assessed as muraglitazar 12-carboxylic acid level after 12 hrs by LC/MS analysis; assay type: ADME, organism-based, Macaca fascicularis; conditions: in vivo, po
[21] = Metabolic stability in cynomolgus monkey hepatocytes assessed as 8-hydroxy-O-demethyl muraglitazar level by LC/MS analysis relative to control; assay type: ADME, cell-based, Macaca fascicularis, Hepatocyte
[22] = Biodistribution in orally dosed cynomolgus monkey urine assessed as 9-hydroxy-O-demethyl muraglitazar level by LC/MS analysis; assay type: ADME, organism-based, Macaca fascicularis; conditions: in vivo, po
[23] = Drug concentration in cynomolgus monkey feces assessed as recovery of radioactive dose at 2 mg/kg, po after 168 hrs; assay type: ADME, organism-based, Macaca fascicularis; set-up: dose 2 mg/kg, route oral; conditions: in vivo
Plasma [24] = assay: Biodistribution in orally dosed Sprague-Dawley rat plasma assessed as muraglitazar 12-carboxylic acid level after 12 hrs by LC/MS analysis; assay type: ADME, organism-based; conditions: in vivo, po
Plasma [25] = assay: Biodistribution in orally dosed cynomolgus monkey plasma assessed as muraglitazar 12-carboxylic acid level after 4 hrs by LC/MS analysis; assay type: ADME, organism-based, Macaca fascicularis; conditions: in vivo, po
[26] = Biodistribution in orally dosed cynomolgus monkey feces assessed as 8-hydroxy-O-demethyl muraglitazar level by LC/MS analysis; assay type: ADME, organism-based, Macaca fascicularis; conditions: in vivo, po
[27] = Metabolic stability in CD1 mouse hepatocytes assessed as 17-hydroxy muraglitazar level by LC/MS analysis relative to control; assay type: ADME, cell-based, Hepatocyte
Plasma [28] = assay: Biodistribution in orally dosed human plasma assessed as 12,17-dihydroxy muraglitazar level after 4 hrs by LC/MS analysis; assay type: ADME, organism-based; conditions: in vivo, po
[29] = Biodistribution in orally dosed cynomolgus monkey feces assessed as acetylimide derivative of muraglitazar level by LC/MS analysis; assay type: ADME, organism-based, Macaca fascicularis; conditions: in vivo, po
Plasma [30] = assay: Biodistribution in orally dosed human plasma assessed as muraglitazar 12-carboxylic acid level after 4 hrs by LC/MS analysis; assay type: ADME, organism-based; conditions: in vivo, po
Rattus norvegicus [31] = assay: Biodistribution in orally dosed Sprague-Dawley rat feces assessed as 8-hydroxy muraglitazar level by LC/MS analysis; assay type: ADME, organism-based; conditions: in vivo, po
[32] = Drug concentration in bile duct-cannulated Sprague-Dawley rat bile assessed as recovery of radioactive dose at 11 mg/kg, po after 24 hrs; assay type: ADME, organism-based; set-up: dose 11 mg/kg, route oral; conditions: in vivo
[33] = Fecal excretion rate in orally dosed Sprague-Dawley rat within 24 hrs; assay type: ADME, organism-based; conditions: faeces, po, read-out: Activity
Hepatocyte [34] = assay: Metabolic stability in Sprague-Dawley rat hepatocytes assessed as muraglitazar glucuronide level by LC/MS analysis relative to control; assay type: ADME, cell-based
Plasma [35] = assay: Biodistribution in orally dosed cynomolgus monkey plasma assessed as 12-hydroxy-O-demethyl muraglitazar level after 12 hrs by LC/MS analysis; assay type: ADME, organism-based, Macaca fascicularis; conditions: in vivo, po
[36] = Metabolic stability in cynomolgus monkey hepatocytes assessed as 17-hydroxy-O-demethyl muraglitazar level by LC/MS analysis relative to control; assay type: ADME, cell-based, Macaca fascicularis, Hepatocyte
Plasma [37] = assay: Biodistribution in orally dosed Beagle dog plasma assessed as muraglitazar glucuronide level after 1 hr by LC/MS analysis; assay type: ADME, organism-based, Canis lupus familiaris; conditions: in vivo, po
[38] = Biodistribution in orally dosed human feces assessed as 17-hydroxy muraglitazar level by LC/MS analysis; assay type: ADME, organism-based; conditions: in vivo, po
Hepatocyte [39] = assay: Metabolic stability in Sprague-Dawley rat hepatocytes assessed as hydroxyl muraglitazar glucuronide level by LC/MS analysis relative to control; assay type: ADME, cell-based
[40] = Biodistribution in orally dosed cynomolgus monkey feces assessed as 17-hydroxy muraglitazar level by LC/MS analysis; assay type: ADME, organism-based, Macaca fascicularis; conditions: in vivo, po
Rattus norvegicus [41] = assay: Biodistribution in orally dosed Sprague-Dawley rat urine assessed as 17-hydroxy muraglitazar level by LC/MS analysis; assay type: ADME, organism-based; conditions: in vivo, po
Hepatocyte [42] = assay: Metabolic stability in human hepatocytes assessed as hydroxyl muraglitazar glucuronide level by LC/MS analysis relative to control; assay type: ADME, cell-based
[43] = Fecal excretion of compound in orally dosed cynomolgus monkey within 96 hrs; assay type: ADME, organism-based, Macaca fascicularis; conditions: faeces, po, read-out: Activity
Plasma [44] = assay: Biodistribution in orally dosed cynomolgus monkey plasma assessed as O-demethyl muraglitazar glucuronide level after 1 hr by LC/MS analysis; assay type: ADME, organism-based, Macaca fascicularis; conditions: in vivo, po
[45] = Drug concentration in Beagle dog urine assessed as recovery of radioactive dose at 1.9 mg/kg, po after 168 hrs; assay type: ADME, organism-based, Canis lupus familiaris; set-up: dose 1.9 mg/kg, route oral; conditions: in vivo
Plasma [46] = assay: Biodistribution in orally dosed cynomolgus monkey plasma assessed as O-demethyl muraglitazar level after 1 hr by LC/MS analysis; assay type: ADME, organism-based, Macaca fascicularis; conditions: in vivo, po
[47] = Biodistribution in orally dosed human feces assessed as 8,12-dihydroxy muraglitazar level by LC/MS analysis; assay type: ADME, organism-based; conditions: in vivo, po
[48] = Biodistribution in orally dosed cynomolgus monkey feces assessed as O-demethyl muraglitazar level by LC/MS analysis; assay type: ADME, organism-based, Macaca fascicularis; conditions: in vivo, po
Hepatocyte [49] = assay: Metabolic stability in human hepatocytes assessed as 17-hydroxy muraglitazar level by LC/MS analysis relative to control; assay type: ADME, cell-based
[50] = Biodistribution in orally dosed cynomolgus monkey feces assessed as muraglitazar glucuronide level by LC/MS analysis; assay type: ADME, organism-based, Macaca fascicularis; conditions: in vivo, po
[51] = Drug concentration in bile duct-cannulated Sprague-Dawley rat feces assessed as recovery of radioactive dose at 11 mg/kg, po after 24 hrs; assay type: ADME, organism-based; set-up: dose 11 mg/kg, route oral; conditions: in vivo

## COc1ccc(OC(=O)N(CC(=O)O)Cc2ccc(OCCc3nc(-c4ccccc4)oc3C)cc2)cc1 [MURAGLITAZAR]
[1]
  Drug uptake: 3.7%
[2]
  Drug uptake: 89%
[3]
  Drug uptake: < 0.2%
Plasma [4]
  Drug uptake: 0.3%
[5]
  Drug uptake: 8.2%
[6]
  Drug uptake: < 0.2%
Rattus norvegicus [7]
  Drug uptake: < 0.01%
Plasma [8]
  Drug uptake: 1%
[9]
  Drug uptake: 0.03%
[10]
  Drug uptake: 50.7%
Plasma [11]
  Drug uptake: 8%
Hepatocyte [12]
  Drug uptake: < 0.2%
[13]
  Drug uptake: 7.9%
[14]
  Drug uptake: 0.4%
[15]
  Drug uptake: 1%
Plasma [16]
  Drug uptake: 3.5%
Plasma [17]
  Drug uptake: 2.9%
[18]
  Drug uptake: 35.7%
[19]
  dose excreted at 12 h: 0.51%
Plasma [20]
  Drug uptake: 0.5%
[21]
  Drug uptake: < 0.2%
[22]
  Drug uptake: 0.18%
[23]
  Drug uptake: 80.4%
Plasma [24]
  Drug uptake: < 0.05%
Plasma [25]
  Drug uptake: < 0.05%
[26]
  Drug uptake: 1.29%
[27]
  Drug uptake: 5.4%
Plasma [28]
  Drug uptake: < 0.05%
[29]
  Drug uptake: 0.16%
Plasma [30]
  Drug uptake: 0.2%
Rattus norvegicus [31]
  Drug uptake: 4.39%
[32]
  Drug uptake: 65.1%
[33]
  dose excreted at 24 h: 85%
Hepatocyte [34]
  Drug uptake: 0.5%
Plasma [35]
  Drug uptake: 2.7%
[36]
  Drug uptake: 11%
Plasma [37]
  Drug uptake: < 0.05%
[38]
  Drug uptake: 5.92%
Hepatocyte [39]
  Drug uptake: 0.5%
[40]
  Drug uptake: 25.73%
Rattus norvegicus [41]
  Drug uptake: < 0.01%
Hepatocyte [42]
  Drug uptake: 0.2%
[43]
  dose excreted at 96 h: 75%
Plasma [44]
  Drug uptake: 0.1%
[45]
  Drug uptake: 0.5%
Plasma [46]
  Drug uptake: 0.1%
[47]
  Drug uptake: 1.36%
[48]
  Drug uptake: 7.24%
Hepatocyte [49]
  Drug uptake: 4.4%
[50]
  Drug uptake: 0.8%
[51]
  Drug uptake: 0.55%
